Reference: patent publication US9828342B2, “Isatin derivatives, pharmaceutical compositions thereof, and methods of use thereof” (CITY OF HOPE, priority 2012, dated 2017)
Read-outs that look alike come from different tables or passages of the source.

What was measured:
[1] = system: DU145 prostate cancer cells; assay: MTS cell viability assay in DU145 prostate cancer cells; type: cell-based
Method: (§1) Then, MTS assays for cell viability were carried out to determine the IC50 values. Four samples were tested for each isatin derivative at each concentration in each cell line, and the averaged data were shown in Table 2a and FIGS. 1˜4.
(§2) IC50 of values of isatin derivatives Compounds 101˜123 were determined in cancer cell lines DU145 and A2058 respectively.

[2] = system: A2058 human melanoma cells; assay: MTS cell viability assay in A2058 melanoma cells; type: cell-based
Method: as §1, §2

[3] = system: PANC-1 pancreatic cancer cells; assay: MTS cell viability assay in PANC-1 pancreatic cancer cells; type: cell-based; conditions: Homo sapiens, PANC-1, 48 hr, 1% DMSO
Method: (§3) Each type of cells (5,000 or 10,000 cells/well) were treated with different concentration (0.1 μM to 10 μM in 1% DMSO of Compound 2 or Compound 22 respectively for 48 hr). Then, MTS assays for cell viability were carried out to determine the IC50 values. Four samples were tested for each test compound at each concentration for each type of cells, and the averaged data were shown in Table 3 and FIG. 5.

[4] = system: PaCa2 pancreatic cancer cells; assay: MTS cell viability assay in PaCa2 pancreatic cancer cells; type: cell-based; conditions: PaCa-2, PaCa2, 48 hr, 1% DMSO
Method: as §3

[5] = system: OVCAR5 ovarian cancer cells; assay: MTS cell viability assay in OVCAR5 ovarian cancer cells; type: cell-based; conditions: Homo sapiens, OVCAR-5, OVCAR5, 48 hr, 1% DMSO
Method: as §3, with “to 20” for “to 10”, “of cisplatin” for “of Compound 2”, “Compound 2, 9, 12, 16 or” for “Compound”, “Table 4” for “Table 3”, “and FIGS. 6-8.” for “and FIG. 5.”

[6] = system: A2780 cisplatin-resistant ovarian cancer cells; assay: MTS cell viability assay in A2780 cisplatin-resistant ovarian cancer cells; type: cell-based; conditions: for IC50: A2780 cisplatin-resistant, 48 hr, 1% DMSO, MTS
Method: as §3, with “to 20” for “to 10”, “of cisplatin” for “of Compound 2”, “Compound 2, 9, 12, 16 or” for “Compound”, “Table 4” for “Table 3”, “and FIGS. 6-8.” for “and FIG. 5.”

[7] = system: OCI-Ly3 non-Hodgkins B cell lymphoma cells; assay: MTS cell viability assay in OCI-Ly3 lymphoma cells; type: cell-based; conditions: Homo sapiens, OCI-Ly3, 48 hr, 1% DMSO
Method: as §3, with “concentration (0.01” for “concentration (0.1”, “to 5” for “to 10”, “of the test compound” for “of Compound 2 or Compound 22”, “Table 5” for “Table 3”, “and FIGS. 10˜12.” for “and FIG. 5.”

[8] = system: Daudi B Cell Burkitt lymphoma cells; assay: MTS cell viability assay in Daudi lymphoma cells; type: cell-based; conditions: Homo sapiens, 48 hr, 1% DMSO
Method: as §3, with “concentration (0.01” for “concentration (0.1”, “to 5” for “to 10”, “of the test compound” for “of Compound 2 or Compound 22”, “Table 5” for “Table 3”, “and FIGS. 10˜12.” for “and FIG. 5.”

[9] = system: Anaplastic Large T cell lymphoma cells; assay: MTS cell viability assay in anaplastic large T cell lymphoma cells; type: cell-based; conditions: 48 hr, 1% DMSO
Method: as §3, with “concentration (0.01” for “concentration (0.1”, “to 5” for “to 10”, “of the test compound” for “of Compound 2 or Compound 22”, “Table 5” for “Table 3”, “and FIGS. 10˜12.” for “and FIG. 5.”

Cyclin B1 = assay: Immunoblot of Cyclin B1 content in DU145 and A2058 cells; type: cell-based; conditions: DU145 or A2058 cells, 0.1, 1 or 2.5 μM, 24 hr, higher dosage
Method: (§4) DU145 prostate cancer cells or A2058 melanoma cells were incubated with Compound 22 at a concentration of 0.1, 1, or 2.5 μM or DMSO for 24 hr. Cells were lysed using Laemmli buffer. The differences in the content of Cyclin B1 and phosphorylation of Cdc25C were determined by immunoblot analysis.

Cdc25C = assay: Immunoblot of Cdc25C phosphorylation in DU145 and A2058 cells; type: cell-based; conditions: DU145 or A2058 cells, 0.1, 1 or 2.5 μM, 24 hr, higher dosage
Method: as §4

tubulin = assay: In vitro tubulin polymerization assay (HTS-Tubulin polymerization assay kit); type: biochemical; conditions: 1 μM, 4 mg/mL tubulin, 1 hr, 37° C.
Method: To determine whether Compound 22 inhibits tubulin formation in vitro, HTS-Tubulin polymerization assay kits (cytoskeleton) were used. The assay procedure was performed using the manufacturer's protocol. Briefly, each 4 mg tubulin was resuspended with 1 mL of the cold G-PEM (80 mM PIPES pH6.9, 2 mM MgCl2, 0.5 mM EGTA) buffer to make the final concentration of 4 mg/mL. The reaction volume was 100 μL. Tubulin polymerization was monitored with the kinetic mode at […] for 1 hr at 37° C. […] Together, compound 22 is a promising lead compound to develop new anticancer drugs as new class of microtubule inhibitors.

[10] = system: Ly-3 lymphoma SQ xenografts; assay: Ly-3 lymphoma SQ xenografts in mice; type: in vivo; conditions: oral, 100 mg/kg once a day, 7th treatment day, P=0.03 vs vehicle
Method: Ly-3 lymphoma cells (1×10^7) were subcutaneously injected to II-2 rg(ko)/NOD-SCID female mice. 7 mice were treated with vehicle as the control group once a day. 7 mice were treated with Compound 109 as the treatment group by oral administration at 100 mg/kg dose, once a day. Mice were euthanized at the 7th treatment day by IACUC of the Beckman Research Institute of City of Hope. In the figure, * means P=0.03 wherein P values less than 0.05 were considered statistically significant.

[11] = system: SKOV3 ovarian cancer cells; assay: MTS cell viability assay in SKOV3 ovarian cancer cells; type: cell-based; conditions: Homo sapiens, SK-OV-3, SKOV3, 48 hr, 1% DMSO
Method: as §3, with “to 20” for “to 10”, “of cisplatin” for “of Compound 2”, “Compound 2, 9, 12, 16 or” for “Compound”, “Table 4” for “Table 3”, “and FIGS. 6-8.” for “and FIG. 5.”

EGFR = assay: Immunoblot of EGFR phosphorylation in DU145 cells; type: cell-based; conditions: DU145, 0.5-5 μM, 4 hr, EGF 10 ng/ml, vs negative control, concentration-associated
Method: (§5) DU145 prostate cancer cells were incubated in complete growth medium in 100 mm petri dishes (1×10^6 cells per dish) for 24 hr. Compound 2 was added at a concentration of 0.5 μM, 1.0 μM, 2.5 μM, and 5 μM respectively. Cell samples that were not added any Compound 2 were negative controls. After 4 hr, EGF (10 ng/ml final concentration) was added to culture media and cells were lysed using Laemmli buffer. Differences in the phosphorylation of Erk1/2 and EGFR were determined by immunoblot analysis (FIG. 13).

Erk1/2 [12] = assay: Immunoblot of Erk1/2 phosphorylation in DU145 cells; type: cell-based; conditions: DU145, 0.5-5 μM, 4 hr, EGF 10 ng/ml, vs negative control, concentration-associated
Method: as §5

Her2/Neu = assay: Immunoblot of Her2/Neu phosphorylation in A2058 cells; type: cell-based, human; conditions: A2058, 0.5-5 μM, 4 hr, vs negative control, concentration-associated
Method: (§6) A2058 melanoma cells were incubated in complete growth medium in 100 mm petri dishes (1×10^6 cells per dish) for 24 hr. Compound 2 was added at a concentration of 0.5 μM, 1.0 μM, 2.5 μM, and 5 μM respectively. Cell samples that were not added any Compound 2 were negative controls. After 4 hr, cells were lysed using Laemmli buffer. Differences in the phosphorylation of Her2/Neu, Jak2, Src, Stat3, AKT, and Erk1/2 were determined by immunoblot analysis (FIG. 14a).

Jak2 = assay: Immunoblot of Jak2 phosphorylation in A2058 cells; type: cell-based, human; conditions: A2058, 0.5-5 μM, 4 hr, vs negative control, concentration-associated
Method: as §6
as §6, with “of” for “of 0.5 μM, 1.0 μM, 2.5 μM, and”, “μM.” for “μM respectively.”, “Cells” for “After 4 hr, cells”, “buffer 0.5 hr, 1 hr, 2 hr, 4 hr, 6 hr and 24 hr after treatment.” for “buffer.”, “of” for “of Her2/Neu,”, “14b).” for “14a).”

Src = assay: Immunoblot of Src phosphorylation in A2058 cells; type: cell-based, human; conditions: A2058, 0.5-5 μM, 4 hr, vs negative control, concentration-associated
Method: as §6
as §6, with “of” for “of 0.5 μM, 1.0 μM, 2.5 μM, and”, “μM.” for “μM respectively.”, “Cells” for “After 4 hr, cells”, “buffer 0.5 hr, 1 hr, 2 hr, 4 hr, 6 hr and 24 hr after treatment.” for “buffer.”, “of” for “of Her2/Neu,”, “14b).” for “14a).”

Stat3 = assay: Immunoblot of Stat3 phosphorylation in A2058 cells; type: cell-based, human; conditions: A2058, 0.5-5 μM, 4 hr, vs negative control, concentration-associated
Method: as §6
as §6, with “of” for “of 0.5 μM, 1.0 μM, 2.5 μM, and”, “μM.” for “μM respectively.”, “Cells” for “After 4 hr, cells”, “buffer 0.5 hr, 1 hr, 2 hr, 4 hr, 6 hr and 24 hr after treatment.” for “buffer.”, “of” for “of Her2/Neu,”, “14b).” for “14a).”

AKT = assay: Immunoblot of AKT phosphorylation in A2058 cells; type: cell-based, human; conditions: A2058, 0.5-5 μM, 4 hr, vs negative control, concentration-associated
Method: as §6
as §6, with “of” for “of 0.5 μM, 1.0 μM, 2.5 μM, and”, “μM.” for “μM respectively.”, “Cells” for “After 4 hr, cells”, “buffer 0.5 hr, 1 hr, 2 hr, 4 hr, 6 hr and 24 hr after treatment.” for “buffer.”, “of” for “of Her2/Neu,”, “14b).” for “14a).”

Erk1/2 [13] = assay: Immunoblot of Erk1/2 phosphorylation in A2058 cells; type: cell-based, human; conditions: A2058, 0.5-5 μM, 4 hr, vs negative control, concentration-associated
Method: as §6
as §6, with “of” for “of 0.5 μM, 1.0 μM, 2.5 μM, and”, “μM.” for “μM respectively.”, “Cells” for “After 4 hr, cells”, “buffer 0.5 hr, 1 hr, 2 hr, 4 hr, 6 hr and 24 hr after treatment.” for “buffer.”, “of” for “of Her2/Neu,”, “14b).” for “14a).”

[14] = Homo sapiens, DU-145, 48 h, DU145, 48 hr, 0.05 to 10 μM in 1% DMSO, MTS (Table 2a), read-out: DU145 IC50
[15] = Homo sapiens, A2058, 48 h, 0.05 to 10 μM in 1% DMSO, MTS (Table 2a), read-out: A2058 IC50

## O=C1C(=O)N(C/C=C/c2ccccc2)c2ccc(-c3cccnc3)cc21 [Compound 22]
[1]; [14]
  IC50: 0.3 µM
[2]; [15]
  IC50: 0.21 µM
[3]
  IC50: 0.1 µM
[4]
  IC50: 0.096 µM
[5]
  IC50: 0.34 µM
[6]; Homo sapiens, A2780, 48 h
  IC50: 0.44 µM
[7]
  IC50: 0.039 µM
[8]
  IC50: 0.038 µM
[9]
  IC50: 0.13 µM
Cyclin B1
  content of Cyclin B1: increased amount of Cyclin B1
Cdc25C
  phosphorylation of Cdc25C: less phosphorylation of Cdc25C
tubulin
  tubulin polymerization in vitro: substantially inhibited tubulin polymerization

## O=C1C(=O)N(C/C=C/c2cccnc2)c2ccc(-c3cccnc3)cc21 [Compound 109]
[1]; DU145, compound in DMSO, 48 hr, MTS (Table 2b), read-out: IC50 value, DMSO, DU145
  IC50: 0.48 µM
[1]; Homo sapiens, DU-145, 48 h, DU145, compound in water, 48 hr, MTS (Table 2b), read-out: IC50 value, Water, DU145
  IC50: 0.63 µM
[2]; A2058, compound in DMSO, 48 hr, MTS (Table 2b), read-out: IC50 value, DMSO, A2058
  IC50: 0.58 µM
[2]; Homo sapiens, A2058, 48 h, A2058, compound in water, 48 hr, MTS (Table 2b), read-out: IC50 value, Water, A2058
  IC50: 1 µM
[7]
  IC50: 0.063 µM
[10]
  efficacy (tumor volume) in Ly-3 lymphoma SQ xenografts: statistically significantly showed efficacy

## O=C1C(=O)N(CCCc2ccccc2)c2ccc(-c3cccnc3)cc21 [Compound 9]
[1]; [14]
  IC50: 0.47 µM
[2]; [15]
  IC50: 0.66 µM
[5]
  IC50: 0.84 µM
[6]
  IC50: 0.39 µM
[6]; FIG. 9, compared with cisplatin
  viability of A2780 cisplatin-resistant ovarian cancer cells in comparison of cisplatin: significantly reduced the viability
[6]; Homo sapiens, A2780, 48 h
  IC50: 0.75 µM
[7]
  IC50: 0.26 µM

## O=C1C(=O)N(Cc2ccccc2)c2ccc(-c3cccnc3)cc21 [Compound 2]
[1]; [14]
  IC50: 0.79 µM
[2]; [15]
  IC50: 0.78 µM
[3]
  IC50: 0.97 µM
[11]
  IC50: > 5 µM
[5]
  IC50: 0.8 µM
EGFR
  phosphorylation of EGFR: less phosphorylations
Erk1/2 [12]
  phosphorylation of Erk1/2: less phosphorylations
Her2/Neu
  phosphorylation of Her2/Neu: less phosphorylations
Jak2
  phosphorylation of Jak2: less phosphorylations
Src
  phosphorylation of Src: less phosphorylations
Stat3
  phosphorylation of Stat3: less phosphorylations
AKT
  phosphorylation of AKT: less phosphorylations
Erk1/2 [13]
  phosphorylation of Erk1/2: less phosphorylations
